{"source": "paper PMC9958325", "about": "(Nature Communications, 2023)", "key": {"HeLa-ACE2-TMPRSS2 cells": {"test_system": "HeLa-ACE2-TMPRSS2 cells", "assay": "Cytotoxicity (WST-8) in noninfected HeLa-ACE2-TMPRSS2 cells", "conditions": "read-out: CC50, HeLa-ACE2-TMPRSS2"}, "SARS-CoV-2 M^pro": {"target": "SARS-CoV-2 M^pro (Severe acute respiratory syndrome coronavirus 2, UniProt P0DTD1)", "conditions": "PDB 8DOX (TKB245), 8DPR (TKB248)"}, "[1]": {"assay": "Pharmacokinetic study in ICR mice"}, "SARS-CoV-2UW-5250^Delta": {"test_system": "SARS-CoV-2UW-5250^Delta", "set-up": "species or system hACE2 knock-in mice", "conditions": "mouse, in vivo, ip, 100 mg/kg"}, "A549-ACE2-TMPRSS2 cells": {"test_system": "A549-ACE2-TMPRSS2 cells", "conditions": "read-out: CC50, A549-ACE2-TMPRSS2; noninfected cells"}, "SARS-CoV-2 M^pro/3CL^pro": {"target": "SARS-CoV-2 M^pro/3CL^pro (Severe acute respiratory syndrome coronavirus 2, UniProt P0DTD1)", "assay_type": "biochemical", "set-up": "IC95, individual assays / IC95, Average: unit: µM"}, "human cathepsin L": {"target": "T1, human cathepsin L (Homo sapiens, UniProt P07711)", "T1 construct": "purchased abcam ab197012", "T1 sequence (P07711 114-333)": "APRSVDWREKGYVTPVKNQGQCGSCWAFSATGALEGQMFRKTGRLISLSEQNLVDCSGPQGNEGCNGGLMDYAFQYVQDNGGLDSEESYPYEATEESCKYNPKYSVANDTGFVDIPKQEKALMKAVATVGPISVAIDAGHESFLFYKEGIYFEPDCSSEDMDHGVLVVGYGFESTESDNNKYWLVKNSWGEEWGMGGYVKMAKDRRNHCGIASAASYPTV", "assay": "Human cathepsin L inhibitor screening assay", "assay_type": "biochemical", "conditions": "for % inhibition against human Cathepsin: triplicate; for IC50: 30 minute incubation, mean ± 1 S.D., n=3"}, "VeroE6 cells [2]": {"test_system": "VeroE6 cells", "assay": "Cytotoxicity (WST-8) in noninfected VeroE6 cells"}, "[3]": {"test_system": "SARS-CoV-2NC928-2N^Omicron_BA.1", "set-up": "species or system hACE2 knock-in mice", "conditions": "mouse, in vivo; for Virus titer in lung: ip"}, "[4]": {"target": "authentic SARS-CoV-2 M^pro (Severe acute respiratory syndrome coronavirus 2, UniProt P0DTD1)"}, "[5]": {"test_system": "SARS-CoV-2NCD1288^Omicron_BA.2", "set-up": "species or system hACE2 knock-in mice", "conditions": "mouse, in vivo, ip, 120 mg/kg"}, "Glycine-added M^pro": {"target": "Glycine-added M^pro (Severe acute respiratory syndrome coronavirus 2, UniProt P0DTD1)"}, "VeroE6 cells [6]": {"test_system": "VeroE6 cells", "conditions": "African green monkey, 6 h"}, "in vivo": {"assay": "in vivo", "conditions": "male, PXB (human liver-chimeric), mouse, po, 10 mg/kg"}, "in vitro [7]": {"assay": "in vitro", "conditions": "African green monkey, VeroE6 cells"}, "in vitro [8]": {"assay": "in vitro", "conditions": "human, HeLa-ACE2-TMPRSS2 cells"}, "[9]": {"conditions": "source data, M^pro enzyme assay"}, "[10]": {"conditions": "read-out: CC50, VeroE6 + 2 µM CP100356, CP100356 2 µM"}}, "note": "Where “and” joins values, the source holds several entries; their conditions need not be identical. Equal entries are not always repeated. Where two headings read alike, the source gives them in different places.", "data": [{"smiles": "CC(C)(C)[C@H](NC(=O)C(F)(F)F)C(=O)N1C[C@H]2[C@@H]([C@H]1C(=O)N[C@@H](C[C@@H]1CCNC1=O)C(=O)c1nc3c(F)cccc3s1)C2(C)C", "note": "[TKB245]", "values": [{"measurement": "CC50", "setting": "HeLa-ACE2-TMPRSS2 cells", "result": "> 100", "unit": "µM"}, {"measurement": "Binding mode in co-crystal structure", "setting": "SARS-CoV-2 M^pro", "result": "covalent bond formation between Cys145 and 4-fluorobenzothioazoly ketone"}, {"measurement": "Plasma concentration", "setting": "[1]; ICR mice, i.p. 10 mg/kg, 2:00:00, individual mice, 10 mg/kg", "result": 528.9, "unit": "ng/mL"}, {"measurement": "Plasma concentration", "setting": "[1]; ICR, i.p., 120 min, individual animals (2 per time point), LC/MS/MS", "result": 528.86, "unit": "ng/mL"}, {"measurement": "Virus titer in lung", "setting": "SARS-CoV-2UW-5250^Delta", "result": "6.24 Log10 PFU/gr and 6.89 Log10 PFU/gr"}, {"measurement": "CC50", "setting": "A549-ACE2-TMPRSS2 cells", "result": "> 100", "unit": "µM"}, {"measurement": "CC50", "setting": "HepG2 cells", "result": "> 200", "unit": "µM"}, {"measurement": "SARS-CoV2 M^pro enzyme assay IC95", "setting": "SARS-CoV-2 M^pro/3CL^pro; FRET, mean ± 1 S.D.", "result": "0.14 ± 0.07", "unit": "µM"}, {"measurement": "IC95, Average", "setting": "SARS-CoV-2 M^pro/3CL^pro; [9]", "result": 0.1363}, {"measurement": "IC95, individual assays", "setting": "SARS-CoV-2 M^pro/3CL^pro; source data, M^pro enzyme assay, listed as TKB0245", "result": "0.096 and 0.213 and 0.100"}, {"measurement": "Effect on human cathepsin L (in words)", "setting": "human cathepsin L", "result": "neither of human cysteine enzymes, cathepsin L and calpain, were significantly affected"}, {"measurement": "% inhibition against human Cathepsin", "setting": "human cathepsin L; 0.00106 µM", "result": 0, "unit": "%"}, {"measurement": "% inhibition against human Cathepsin", "setting": "human cathepsin L; 0.0053 µM", "result": 0, "unit": "%"}, {"measurement": "% inhibition against human Cathepsin", "setting": "human cathepsin L; 0.0266 µM", "result": "0% and 0.8979%"}, {"measurement": "% inhibition against human Cathepsin", "setting": "human cathepsin L; 0.6 µM", "result": "0% and 2.5149%"}, {"measurement": "% inhibition against human Cathepsin", "setting": "human cathepsin L; 3.3 µM", "result": "9.142% and 0% and 2.217%"}, {"measurement": "% inhibition against human Cathepsin", "setting": "human cathepsin L; 16.6 µM", "result": "21.1326% and 17.6611% and 11.0896%"}, {"measurement": "IC50", "setting": "human cathepsin L", "result": "> 16", "unit": "µM"}, {"measurement": "CC50", "setting": "VeroE6 cells [2]; read-out: CC50, VeroE6", "result": "> 100", "unit": "µM"}, {"measurement": "CC50", "setting": "VeroE6 cells [2]; [10]", "result": "> 100", "unit": "µM"}, {"measurement": "Virus titer in lung", "setting": "[3]; 100 mg/kg", "result": "2.95 Log10 PFU/gr and 3.55 Log10 PFU/gr"}]}, {"smiles": "CC(C)(C)[C@H](NC(=O)C(F)(F)F)C(=O)N1C[C@H]2[C@@H]([C@H]1C(=S)N[C@@H](C[C@@H]1CCNC1=O)C(=O)c1nc3c(F)cccc3s1)C2(C)C", "note": "[TKB248]", "values": [{"measurement": "CC50", "setting": "HeLa-ACE2-TMPRSS2 cells", "result": "> 100", "unit": "µM"}, {"measurement": "Peak ratio, Dimer-1X compound", "setting": "[4]", "result": "42.6% and 25.2%"}, {"measurement": "Peak ratio, M^pro Monomer", "setting": "[4]", "result": "8.6% and 7.7%"}, {"measurement": "Binding mode in co-crystal structure", "setting": "SARS-CoV-2 M^pro", "result": "covalent bond formation between Cys145 and 4-fluorobenzothioazoly ketone"}, {"measurement": "CC50", "setting": "A549-ACE2-TMPRSS2 cells", "result": "> 100", "unit": "µM"}, {"measurement": "CC50", "setting": "HepG2 cells", "result": "> 200", "unit": "µM"}, {"measurement": "SARS-CoV2 M^pro enzyme assay IC95", "setting": "SARS-CoV-2 M^pro/3CL^pro; FRET, mean ± 1 S.D.", "result": "6.00 ± 5.29", "unit": "µM"}, {"measurement": "IC50", "setting": "SARS-CoV-2 M^pro/3CL^pro; FRET, mean ± 1 S.D., read-out: SARS-CoV2 M^pro enzyme assay IC50", "result": "0.074 ± 0.034", "unit": "µM"}, {"measurement": "IC95, Average", "setting": "SARS-CoV-2 M^pro/3CL^pro; [9]", "result": 6.000}, {"measurement": "IC95, individual assays", "setting": "SARS-CoV-2 M^pro/3CL^pro; source data, M^pro enzyme assay, listed as TKB0248", "result": "12.00 and 2.000 and 4.000"}, {"measurement": "IC50", "setting": "SARS-CoV-2 M^pro/3CL^pro; source data, M^pro enzyme assay, listed as TKB0248, read-out: IC50, individual assays", "result": "0.0472 µM and 0.0622 µM and 0.113 µM"}, {"measurement": "IC50", "setting": "SARS-CoV-2 M^pro/3CL^pro; source data, M^pro enzyme assay, read-out: IC50, Average", "result": 0.0741, "unit": "µM"}, {"measurement": "Virus titer in lung", "setting": "[5]", "result": "5.57 Log10 PFU/gr and 4.93 Log10 PFU/gr"}, {"measurement": "Peak ratio, Monomer", "setting": "Glycine-added M^pro", "result": 36.5, "unit": "%"}, {"measurement": "Peak ratio, Monomer-1X compound", "setting": "Glycine-added M^pro", "result": 21.2, "unit": "%"}, {"measurement": "Effect on human cathepsin L (in words)", "setting": "human cathepsin L", "result": "neither of human cysteine enzymes, cathepsin L and calpain, were significantly affected"}, {"measurement": "% inhibition against human Cathepsin", "setting": "human cathepsin L; 0.00106 µM", "result": 0, "unit": "%"}, {"measurement": "% inhibition against human Cathepsin", "setting": "human cathepsin L; 0.0053 µM", "result": 0, "unit": "%"}, {"measurement": "% inhibition against human Cathepsin", "setting": "human cathepsin L; 0.0266 µM", "result": 0, "unit": "%"}, {"measurement": "% inhibition against human Cathepsin", "setting": "human cathepsin L; 0.6 µM", "result": "0.7754% and 0%"}, {"measurement": "% inhibition against human Cathepsin", "setting": "human cathepsin L; 3.3 µM", "result": "3.874% and 0.1997% and 5.01%"}, {"measurement": "% inhibition against human Cathepsin", "setting": "human cathepsin L; 16.6 µM", "result": "10.3453% and 15.2677% and 19.1834%"}, {"measurement": "IC50", "setting": "human cathepsin L", "result": "> 16", "unit": "µM"}, {"measurement": "CC50", "setting": "VeroE6 cells [2]; read-out: CC50, VeroE6", "result": "> 100", "unit": "µM"}, {"measurement": "CC50", "setting": "VeroE6 cells [2]; [10]", "result": "> 100", "unit": "µM"}, {"measurement": "lung virus titer, ave of log pfu/g", "setting": "[3]", "result": "4.602 log pfu/g and 4.836 log pfu/g"}, {"measurement": "Virus titer in lung", "setting": "[3]; 120 mg/kg", "result": "4.60 Log10 PFU/gr and 4.84 Log10 PFU/gr"}]}, {"smiles": "CC(C)(C)[C@H](NC(=O)C(F)(F)F)C(=O)N1C[C@H]2[C@@H]([C@H]1C(=O)N[C@H](C#N)C[C@@H]1CCNC1=O)C2(C)C", "note": "[Nirmatrelvir, reference compound]", "values": [{"measurement": "Intracellular amount, avg", "setting": "VeroE6 cells [6]; 10 µM", "result": "0 pmol(total)"}, {"measurement": "Intracellular amount, individual", "setting": "VeroE6 cells [6]; 10 µM", "result": "0 pmol(total)"}, {"measurement": "intracellular compound, /1x10^6", "setting": "VeroE6 cells [6]; 10 µM", "result": "0 /1x10^6"}, {"measurement": "intracellular compound, pmol(total)", "setting": "VeroE6 cells [6]; 10 µM", "result": 0, "unit": "pmol"}, {"measurement": "Intracellular amount, avg", "setting": "VeroE6 cells [6]; 50 µM", "result": "0.03906 pmol(total)"}, {"measurement": "Intracellular amount, avg", "setting": "VeroE6 cells [6]; 100 µM", "result": "0.1149 pmol(total)"}, {"measurement": "half-life", "setting": "in vivo", "result": 1.03, "unit": "h"}, {"measurement": "CC50 at 3 days", "setting": "in vitro [7]", "result": "> 100", "unit": "µM"}, {"measurement": "CC50 at 3 days", "setting": "in vitro [8]", "result": "> 100", "unit": "µM"}]}]}
